The values that follow come from patent US8022217B2, “Compounds suitable as modulators of HDL” (Cadila Healthcare Limited, priority 2006, dated 2011).

The structures appear in SMILES notation. Counter-ions that a name gives are not always drawn.

For one assay, the target named is T1, recombinant CETP (Homo sapiens, UniProt P11597).
T1 sequence (P11597 18-493): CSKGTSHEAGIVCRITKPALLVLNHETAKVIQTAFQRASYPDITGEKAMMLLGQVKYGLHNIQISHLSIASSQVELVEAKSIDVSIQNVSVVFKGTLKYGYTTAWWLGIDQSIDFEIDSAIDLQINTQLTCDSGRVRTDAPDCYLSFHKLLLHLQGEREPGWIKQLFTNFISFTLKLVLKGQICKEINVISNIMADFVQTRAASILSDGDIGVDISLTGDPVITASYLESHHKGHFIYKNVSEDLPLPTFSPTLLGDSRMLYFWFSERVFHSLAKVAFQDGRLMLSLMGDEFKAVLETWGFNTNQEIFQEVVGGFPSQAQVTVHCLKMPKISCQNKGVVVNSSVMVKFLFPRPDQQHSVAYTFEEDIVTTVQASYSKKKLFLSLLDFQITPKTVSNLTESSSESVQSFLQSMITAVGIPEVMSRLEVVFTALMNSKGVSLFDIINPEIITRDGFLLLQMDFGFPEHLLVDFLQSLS
Kind of assay: CETP in-vitro assay (Scintillation Proximity Assay, transfer of [3H] cholesteryl ester from HDL to biotinylated LDL). In kind it is biochemical.
Conditions: not given
How it is done: This assay used a commercially available Scintillation Proximity Assay kit (Amersham TRKQ7015) with modifications for measuring CETP activity. [^3H] Cholesteryl ester HDL was mixed with non radioactive HDL prepared from human plasma at an appropriate ratio in order to ensure a proper transfer of cholesteryl esters. Transfer of [^3H] Cholesteryl esters from high density lipoprotein (HDL) to biotinylated low density lipoprotein (LDL) was measured following incubation of donor and acceptor particles in the presence of recombinant CETP. Following overnight incubation, the reaction was terminated and transfer was measured in a single step addition of streptavidin coated beads formulated in an assay terminal buffer. The rate of increase in signal was proportional to the transfer of [^3H] Cholesteryl ester by CETP.
A general note: In a scintillation proximity assay essentially only radioactivity close to the scintillant gives light.
For the molecule `CC(C)(C)c1ccc(CN(CCc2ccc(Cl)c(Cl)c2)C(=O)c2cc(F)cc3c2NCCC3)cc1.Cl` [Compound 50, 6-Fluoro-1,2,3,4-tetrahydro-quinoline-8-carboxylic acid (4-tert-butyl-benzyl)-[2-(3,4-dichloro-phenyl)-ethyl]-amide; hydrochloride salt], the “% of CETP inhibition at 10 μmole concentration” value stood at 90%.

The assay is the same for the next values; noted with them: 10 μmole concentration.
With `CC(C)(C)c1ccc(CN(CCc2ccc(F)cc2)C(=O)c2cccc3c2NCCC3)cc1` [Compound 1, 1,2,3,4-Tetrahydro-quinoline-8-carboxylic acid (4-tert-butyl-benzyl)-(2-(4-fluoro-phenyl)-ethyl)-amide], the inhibition (in general, the change of the read-out against control, counted positive when it falls) at 10 µM is 43%.

For `CC(C)(C)c1ccc(CN(CCc2ccc(F)cc2)C(=O)c2ccc(Cl)c3c2NCCC3)cc1` [Compound 7, 5-Chloro-1,2,3,4-tetrahydro-quinoline-8-carboxylic acid (4-tert-butyl-benzyl)-[2-(4-fluoro-phenyl)-ethyl]-amide], the inhibition at 10 µM worked out at 67%.

`CC(C)(C)c1ccc(CN(CCc2cccc(Cl)c2)C(=O)c2cccc3c2NCCC3)cc1` [Compound 10, 1,2,3,4-Tetrahydro-quinoline-8-carboxylic acid (4-tert-butyl-benzyl)-[2-(3-chloro-phenyl)-ethyl]-amide]: the inhibition at 10 µM was 57%.

`Cc1cc2c(c(C(=O)N(CCc3ccc(F)cc3)Cc3ccc(C(C)(C)C)cc3)c1)NCCC2` [Compound 13, 6-Methyl-1,2,3,4-tetrahydro-quinoline-8-carboxylic acid (4-tert-butyl-benzyl)-[2-(4-fluoro-phenyl)-ethyl]-amide]: the inhibition at 10 µM worked out at 80%.

As for `O=C(c1cccc2c1NCCC2)N(CCc1ccc(F)cc1)Cc1ccc(C(F)(F)F)cc1` [Compound 14, 1,2,3,4-Tetrahydro-quinoline-8-carboxylic acid [2-(4-fluoro-phenyl)-ethyl]-(4-trifluoromethyl-benzyl)-amide], the inhibition at 10 µM was determined as 74%.

Consider `COc1ccc(CCN(Cc2ccc(C(C)(C)C)cc2)C(=O)c2cccc3c2NCCC3)cc1` [Compound 17, 1,2,3,4-Tetrahydro-quinoline-8-carboxylic acid (4-tert-butyl-benzyl)-[2-(4-methoxy-phenyl)-ethyl]-amide], for which the inhibition at 10 µM amounted to 92%.

In the case of `CC(C)(C)c1ccc(CN(Cc2cccc(Cl)c2)C(=O)c2cccc3c2NCCC3)cc1` [Compound 21, 1,2,3,4-Tetrahydro-quinoline-8-carboxylic acid (4-tert-butyl-benzyl)-(3-chloro-benzyl)-amide], the inhibition at 10 µM worked out at 77%.

As to `CC(C)(C)c1ccc(CN(CCc2ccccc2F)C(=O)c2cccc3c2NCCC3)cc1` [Compound 22, 1,2,3,4-Tetrahydro-quinoline-8-carboxylic acid (4-tert-butyl-benzyl)-[2-(2-fluoro-phenyl)-ethyl]-amide], the inhibition at 10 µM came to 94%.

In the case of `CC(C)(C)c1ccc(CN(CCc2ccc(F)cc2)C(=O)c2cc(F)cc3c2NCCC3)cc1` [Compound 24, 6-Fluoro-1,2,3,4-tetrahydro-quinoline-8-carboxylic acid (4-tert-butyl-benzyl)-[2-(4-fluoro-phenyl)-ethyl]-amide], the inhibition at 10 µM is 76%.

Take `CCN(CC)c1ccc(CCN(Cc2ccc(C(C)(C)C)cc2)C(=O)c2cccc3c2NCCC3)cc1` [Compound 28, 1,2,3,4-Tetrahydro-quinoline-8-carboxylic acid (4-tert-butyl-benzyl)-[2-(4-diethylamino-phenyl)-ethyl]-amide]: the inhibition at 10 µM stood at 80%.

Turning to `Cc1ccc(CN(CCc2ccc(Cl)c(Cl)c2)C(=O)c2cccc3c2NCCC3)cc1` [Compound 29, 1,2,3,4-Tetrahydro-quinoline-8-carboxylic acid [2-(3,4-dichloro-phenyl)-ethyl]-(4-methyl-benzyl)-amide], the inhibition at 10 µM was 83%.

In the case of `Cc1cc2c(c(C(=O)N(CCc3ccc(Cl)c(Cl)c3)Cc3ccc(C(C)(C)C)cc3)c1)NCCC2` [Compound 31, 6-Methyl-1,2,3,4-tetrahydro-quinoline-8-carboxylic acid (4-tert-butyl-benzyl)-[2-(3,4-dichloro-phenyl)-ethyl]-amide], the inhibition at 10 µM amounted to 82%.

`CC(C)(C)c1ccc(CN(CCc2ccc(Cl)c(Cl)c2)C(=O)c2cc(F)cc3c2NCCC3)cc1` [Compound 32, 6-Fluoro-1,2,3,4-tetrahydro-quinoline-8-carboxylic acid (4-tert-butyl-benzyl)-[2-(3,4-dichloro-phenyl)-ethyl]-amide]: the inhibition at 10 µM turned out to be 82%.

For `CC(C)(C)c1ccc(CN(CCc2ccc(Cl)c(Cl)c2)C(=O)c2cc(Cl)cc3c2NCCC3)cc1` [Compound 35, 6-Chloro-1,2,3,4-tetrahydro-quinoline-8-carboxylic acid (4-tert-butyl-benzyl)-[2-(3,4-dichloro-phenyl)-ethyl]-amide], the inhibition at 10 µM came out at 85%.

Consider `CC(C)(C)c1ccc(CN(CCc2cccc3ccccc23)C(=O)c2cccc3c2NCCC3)cc1` [Compound 37, 1,2,3,4-Tetrahydro-quinoline-8-carboxylic acid (4-tert-butyl-benzyl)-(2-naphthalen-1-yl-ethyl)-amide], for which the inhibition at 10 µM turned out to be 86%.

Take `CC(C)(C)c1ccc(CN(CCc2ccc3c(c2)OCO3)C(=O)c2cccc3c2NCCC3)cc1` [Compound 38, 1,2,3,4-Tetrahydro-quinoline-8-carboxylic acid (2-benzo[1,3]dioxol-5-yl-ethyl)-(4-tert-butyl-benzyl)-amide]: the inhibition at 10 µM was found to be 78%.

For the molecule `CC(C)(C)c1ccc(CN(CCc2ccc(F)c(F)c2)C(=O)c2cc(Cl)cc3c2NCCC3)cc1` [Compound 40, 6-Chloro-1,2,3,4-tetrahydro-quinoline-8-carboxylic acid (4-tert-butyl-benzyl)-[2-(3,4-difluoro-phenyl)-ethyl]-amide], the inhibition at 10 µM came to 89%.

Regarding `CC(C)(C)c1ccc(CN(CCc2ccc(O)cc2)C(=O)c2cccc3c2NCCC3)cc1` [Compound 42, 1,2,3,4-Tetrahydro-quinoline-8-carboxylic acid (4-tert-butyl-benzyl)-[2-(4-hydroxy-phenyl)-ethyl]-amide], the inhibition at 10 µM was 99%.

In the case of `COc1ccc(CCN(Cc2ccc(C(C)(C)C)cc2)C(=O)c2cccc3c2NCCC3)cc1OC` [Compound 43, 1,2,3,4-Tetrahydro-quinoline-8-carboxylic acid (4-tert-butyl-benzyl)-[2-(3,4-dimethoxy-phenyl)-ethyl]-amide], the inhibition at 10 µM is 80%.

Regarding `CC(C)(C)c1ccc(CN(CCc2ccc(Cl)c(F)c2)C(=O)c2cc(Cl)cc3c2NCCC3)cc1` [Compound 45, 6-Chloro-1,2,3,4-tetrahydro-quinoline-8-carboxylic acid (4-tert-butyl-benzyl)-[2-(4-chloro-3-fluoro-phenyl)-ethyl]-amide], the inhibition at 10 µM is 88%.

In the case of `CC(C)(C)c1ccc(CN(CCc2ccc(O[Si](C)(C)C)cc2)C(=O)c2cccc3c2NCCC3)cc1` [Compound 47, 1,2,3,4-Tetrahydro-quinoline-8-carboxylic acid (4-tert-butyl-benzyl)-[2-(4-trimethylsilanyloxy-phenyl)-ethyl]-amide], the inhibition at 10 µM turned out to be 76%.

With `CC(C)(C)c1ccc(CN(CCc2ccc(Cl)c(Cl)c2)C(=O)c2cccc3c2NCCC3)cc1` [Compound 48, 1,2,3,4-Tetrahydro-quinoline-8-carboxylic acid (4-tert-butyl-benzyl)-[2-(3,4-dichloro-phenyl)-ethyl]-amide; hydrochloride salt], the inhibition at 10 µM was 79%.

Another assay deals with T1, recombinant CETP. The assay is described as above. It counts as biochemical. Conditions: CETP inhibition in human plasma.
Take `CC(C)(C)c1ccc(CN(CCc2ccccc2F)C(=O)c2cccc3c2NCCC3)cc1` [Compound 22, 1,2,3,4-Tetrahydro-quinoline-8-carboxylic acid (4-tert-butyl-benzyl)-[2-(2-fluoro-phenyl)-ethyl]-amide]: the IC50 (usually the concentration needed to halve the response being measured) came to 455 nM.

As for `CC(C)(C)c1ccc(CN(CCc2ccc(O[Si](C)(C)C)cc2)C(=O)c2cccc3c2NCCC3)cc1` [Compound 47, 1,2,3,4-Tetrahydro-quinoline-8-carboxylic acid (4-tert-butyl-benzyl)-[2-(4-trimethylsilanyloxy-phenyl)-ethyl]-amide], the IC50 worked out at 167 nM.

For the molecule `CC(C)(C)c1ccc(CN(CCc2ccc(Cl)c(Cl)c2)C(=O)c2cc(F)cc3c2NCCC3)cc1.Cl` [Compound 50, 6-Fluoro-1,2,3,4-tetrahydro-quinoline-8-carboxylic acid (4-tert-butyl-benzyl)-[2-(3,4-dichloro-phenyl)-ethyl]-amide; hydrochloride salt], the IC50 was determined as 30 nM.
